Assay results from ChEMBL document CHEMBL5620395, “Development and therapeutic potential of allosteric retinoic acid receptor-related orphan receptor γt (RORγt) inverse agonists for autoimmune diseases” (Eur J Med Chem, 2023).

biological target: T1, Nuclear receptor ROR-gamma (Homo sapiens, UniProt P51449); assay: Inhibition of RORgamma (unknown origin) incubated for 1 hr by TR-FRET method; settings: not given
T1 sequence (P51449 whole entry): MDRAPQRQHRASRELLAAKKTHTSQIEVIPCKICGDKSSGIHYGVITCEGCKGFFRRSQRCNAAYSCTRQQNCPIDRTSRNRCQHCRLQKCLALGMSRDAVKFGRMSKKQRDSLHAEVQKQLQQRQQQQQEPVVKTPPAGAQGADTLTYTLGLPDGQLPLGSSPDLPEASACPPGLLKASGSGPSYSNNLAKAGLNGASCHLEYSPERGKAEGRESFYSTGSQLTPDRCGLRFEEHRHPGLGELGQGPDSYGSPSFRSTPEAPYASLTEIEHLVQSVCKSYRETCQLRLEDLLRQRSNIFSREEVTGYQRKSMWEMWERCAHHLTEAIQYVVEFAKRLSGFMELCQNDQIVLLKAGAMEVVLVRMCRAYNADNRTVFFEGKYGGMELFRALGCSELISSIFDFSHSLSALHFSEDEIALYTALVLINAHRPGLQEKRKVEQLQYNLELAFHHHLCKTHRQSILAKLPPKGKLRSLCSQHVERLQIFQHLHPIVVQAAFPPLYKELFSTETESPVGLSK

| Compound | IC50 [nM] |
| --- | --- |
| Cc1cc2c(s1)c(-c1ccc(C(=O)O)cc1F)nn2C(=O)c1c(Cl)cccc1Cl | < 50 |
| Cc1cc2c(s1)c(-c1ccc(C(=O)O)cc1F)nn2C(=O)c1c(Cl)cccc1C(F)(F)F | < 50 |
| Cc1cc2c(s1)c(-c1ccc(C(=O)O)c(F)c1)nn2C(=O)c1c(F)cccc1C(F)(F)F | < 50 |
| CN(C)C(=O)c1cc2c(s1)c(-c1ccc(C(=O)O)cc1F)nn2C(=O)c1c(F)cccc1C(F)(F)F | < 50 |
| Cc1cc2c(s1)c(-c1ccc(C(=O)O)cc1)nn2C(=O)c1c(Cl)cccc1C(F)(F)F | < 50 |
| Cc1cc2c(s1)c(-c1ccc(C(=O)O)cc1)nn2C(=O)c1c(C)cccc1Cl | < 50 |
| Cc1cc2c(s1)c(-c1ccc(C(=O)O)cc1F)nn2C(=O)c1c(F)cccc1C(F)(F)F | < 50 |
| Cc1cc2c(s1)c(-c1ccc(C(=O)O)cc1)nn2C(=O)c1c(Cl)cccc1Br | < 50 |

biological target: T2, Peroxisome proliferator-activated receptor gamma (Homo sapiens, UniProt P37231); assay: Inverse agonist activity at human his 6 tagged PPARgammaLBD incubated for 60 mins by TR-FRET assay; settings: not given
T2 sequence (P37231 whole entry): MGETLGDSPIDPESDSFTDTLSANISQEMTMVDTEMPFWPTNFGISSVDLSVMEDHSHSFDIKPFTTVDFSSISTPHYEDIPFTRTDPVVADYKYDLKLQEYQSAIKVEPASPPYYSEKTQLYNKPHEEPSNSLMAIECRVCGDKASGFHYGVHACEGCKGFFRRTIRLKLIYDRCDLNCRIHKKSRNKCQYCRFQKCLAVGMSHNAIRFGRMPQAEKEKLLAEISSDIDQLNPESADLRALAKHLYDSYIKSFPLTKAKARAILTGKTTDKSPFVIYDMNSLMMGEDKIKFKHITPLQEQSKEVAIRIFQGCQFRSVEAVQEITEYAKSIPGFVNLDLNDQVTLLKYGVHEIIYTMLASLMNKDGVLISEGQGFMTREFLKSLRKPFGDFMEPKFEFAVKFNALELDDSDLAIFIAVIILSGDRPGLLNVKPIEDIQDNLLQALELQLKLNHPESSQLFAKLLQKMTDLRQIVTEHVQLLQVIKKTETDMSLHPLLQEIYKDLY

| Compound | IC50 [µM] |
| --- | --- |
| C[C@H](CCC(=O)NCCOCCOCCOCCOCCOCCOCCOCCOCCOCCOCCOCCOCCOCCOCCOCCNC(=O)c1ccc2c(-c3ccc(C(=O)O)cc3)nn(C(=O)c3c(Cl)cccc3C(F)(F)F)c2c1)[C@H]1CC[C@H]2[C@@H]3CC=C4C[C@@H](O)CC[C@]4(C)[C@H]3CC[C@]12C | > 100 |

test system: not listed separately; assay: Inhibition of IL-17a mRNA level in […] at 10 uM incubated for 24 hrs by RT-PCR analysis; assay type: functional, cell-based; settings: el4

| Compound | IC50 [nM] |
| --- | --- |
| C[C@H](CCC(=O)NCCOCCOCCOCCOCCOCCOCCOCCOCCOCCOCCOCCOCCOCCOCCOCCNC(=O)c1ccc2c(-c3ccc(C(=O)O)cc3)nn(C(=O)c3c(Cl)cccc3C(F)(F)F)c2c1)[C@H]1CC[C@H]2[C@@H]3CC=C4C[C@@H](O)CC[C@]4(C)[C@H]3CC[C@]12C | 110 |
